Assay results published in patent US20040152694A1, “Methods and compositions for treating inflammatory disorders of the airways” (priority 2003, published 2004).
Like-named read-outs stand apart in the source and are kept apart here.

Legend:
[1] = system: trachea of ovalbumin-sensitized and challenged BN-rats; assay: Tracheal contraction to acetylcholine ex vivo after antigen challenge, oral pretreatment; format: in vivo, rat; details: for MAX: Contraction at maximal Ach concentration relative to control / ED50: −log M acetylcholine (Ach) causing 50% contraction relative to control: 3.0 mg/kg orally 2 hours before antigen challenge, mean ± SEM; for MAX: Contraction at maximal Ach concentration relative to control: control = 100; for ED50: −log M acetylcholine (Ach) causing 50% contraction relative to control: trachea 48 h post challenge; for Tracheal hyper-reactivity to acetylcholine after ovalbumin challenge: dose of 3.0 mg/kg, oral
Description: (§1) Rats were actively sensitized to ovalbumin (OA) by a subcutaneous injection of 0.5 ml of OA/Al(OH3) gel mixture (2 mg OA+10 g Al(OH3)/100 ml saline) on day 1 with subsequent subcutaneous injections (10 mg OA+10 g Al(OH3)/100 ml saline) given on days 14 and 21. On day 28, animals received GYKI-52466, GYKI-47261 or GYKI-53773 compound orally (0.3 mg/kg or 3.0 mg/kg) 2 hours before antigen challenge. Antigen challenge was performed by inhalation of nebulised ovalbumin (1% antigen solution administered in a TSE inhalation system for 1 hour). Animals were sacrificed 48 hours post antigen challenge wherein the tracheas were removed to an organ bath. Dissected tracheas were allowed to equilibrate for 30 minutes before measuring tracheal spasmogenic response curves to acetylcholine (Ach).

[2] = system: A7r5 established smooth muscle cell line (ATCC); assay: Growth factor-induced proliferation of smooth muscle cells, 3H-thymidine incorporation, A7r5; format: cell-based, rat
Description: (§2) Primary and permanently cultured rat aortic smooth muscle cells were made senescent by serum deprivation (0.1% FCS, 48 hours). Proliferation was induced by re-addition of serum (10%) containing the necessary growth factors and the effect of different concentrations of the AMPA receptor modulators on the proliferation of the cells was determined by measuring ^3H-thymidine incorporation.

[3] = system: Rat aortic smooth muscle cells (primary); assay: Growth factor-induced proliferation of smooth muscle cells, 3H-thymidine incorporation, RASMC; format: cell-based
Description: as §2

[4] = system: trachea of ovalbumin-sensitized and challenged BN-rats; assay: Tracheal contraction to acetylcholine ex vivo after antigen challenge, local (intratracheal) treatment with GYKI-53773; format: in vivo, rat
Description: as §1
The procedures of Example 2 were followed in order to compare the effects of antigen exposure and local (intratracheal) GYKI 53773 treatments on Ach-induced tracheal contractions in allergen sensitized and challenged rats.

[5] = system: airways epithelial cells of antigen sensitized BN rats; assay: Allergen-induced mucus production of airways epithelial cells, PAS staining; format: in vivo, rat; details: mean ± SEM
Description: Antigen sensitized BN rats were pretreated orally with 0.3, 3 and 30 mg/kg GYKI-52466 or GYKI-53773 (Talampanel) 2 hours prior to antigen challenge using a similar protocol that was described in Example 2. Lungs were isolated 48 hours subsequent to antigen exposure; samples were fixed in phosphate-buffered 8% formalin. Specimens were then routinely processed for histochemistry. In the periodic acid-Schiff stained (PAS) and haematoxylin-eosin counterstained, 5 μm thick sections, all epithelial cells of each airway segments were counted in the whole preparations at a magnification of 400×. The number of PAS(+) [mucus-producing] epithelial cells are expressed as the ratio of all epithelial cells.

[6] = system: isolated guinea pig trachea; assay: Endothelin-1-induced contraction of isolated guinea pig trachea in vitro; details: for Emax at 10 µM / Emax at 30 µM: Cavia porcellus, 25 min, read-out: Contraction %: percent of maximal response to 4.5 μM histamine
Description: In order to measure the effect of GYKI 52466 and 53773 (talampanel) on endothelin-1-induced contractions in isolated guinea pig trachea the following procedures were followed. The tracheae of male Dunkin-Hartley guinea pigs (350-450 g) were removed; helical strips were prepared and mounted in an organ bath. After equilibration, the strips were contracted with endothelin-1 and when contraction had reached the plateau, different concentrations of GYKI-52466, 53773 or the suitable vehicles were added into the chambers. Changes in tensions were expressed as the percentage of the maximal response to 4.5 μM histamine measured at the beginning of the experiment.

[7] = system: AMPA receptors; assay: Ventilated, perfused rat lung: AMPA-induced lung injury
Description: The presence/function of AMPA receptors in the lung of experimental animals was investigated in the same model (ventilated perfused rat lung) that was applied for the examination of NMDA-receptors by Said et al., (Proc Natl. Acad. Sci. (USA) 93:4688 (1996). The lung of anesthetized SPRD rats were ventilated and were in situ perfused with a constant flow of Krebs solution. L-arginine, AMPA and AMPA-antagonist were added directly to the perfusate as described by Said et al, supra. As it is shown in Table 2, activation of the AMPA receptors triggered an acute edematous lung injury manifested by the significant increase in airway pressure (PAW) pulmonary artery pressure (PAP) and the ratio of wet and dry weight of the lung after the treatment.

[8] = system: trachea of ovalbumin-sensitized and challenged BN-rats; assay: Tracheal contraction to acetylcholine ex vivo after antigen challenge, local (intratracheal) NBQX; format: in vivo, rat; details: for ED50: −log M acetylcholine (Ach) causing 50% contraction relative to control / MAX: Contraction at maximal Ach concentration relative to control: local
[9] = system: trachea of ovalbumin-sensitized and challenged BN-rats; assay: Tracheal contraction to acetylcholine ex vivo after antigen challenge, systemic (intraperitoneal) NBQX; format: in vivo, rat
Description: as §1
The procedures of Example 2 were followed in order to compare the effects of antigen exposure and systemic (intraperitoneal) NBQX treatments on Ach-induced tracheal contractions in allergen sensitized and challenged rats.

[10] = second dose column (dose number not given)
[11] = third dose column (dose number not given)
[12] = 0.3 mg/kg orally 2 hours prior to antigen challenge, lungs 48 hours after
[13] = 3 mg/kg orally 2 hours prior to antigen challenge
[14] = 30 mg/kg orally 2 hours prior to antigen challenge
[15] = AMPA (200 μM) alone in perfusate, SPRD rats
[16] = third (highest) dose column (dose number not given)

## CC(=O)N1N=C(c2ccc(N)cc2)c2cc3c(cc2CC1C)OCO3 (single isomer, unassigned; (-)) [GYKI-53773, (−)-1-(4-Aminophenyl)-3-acetyl-4-methyl-3,4-dihydro-7,8-methylenedioxy-5H-2,3-benzodiazepine]
[1]
  MAX: Contraction at maximal Ach concentration relative to control: 85 ± 16
  ED50: −log M acetylcholine (Ach) causing 50% contraction relative to control: 4.64 ± 0.34 −log M
  Tracheal hyper-reactivity to acetylcholine after ovalbumin challenge: brought this elevation back to control level
[2]; 0.03 μg/ml
  Inhibition (% of control) A7r5: 21 % of control
[2]; 0.3 μg/ml
  Inhibition (% of control) A7r5: 43 % of control
[2]; 3.0 μg/ml
  Inhibition (% of control) A7r5: 87 % of control
[3]; 0.03 μg/ml
  Inhibition (% of control) RASMC: 26 % of control
[3]; 0.3 μg/ml
  Inhibition (% of control) RASMC: 59 % of control
[3]; 3.0 μg/ml
  Inhibition (% of control) RASMC: 70 % of control
[4]; 1 μg/kg, single administration
  Allergen-induced airways hyperresponsiveness: strongly reduced the allergen-induced airways hyperresponsiveness
[4]; first dose column (dose number not given), challenged 7.22, control 5.89
  ED50: −log M acetylcholine (Ach) causing 50% contraction relative to control: 5.80 ± 0.47 −log M
[4]; first dose column (dose number not given), challenged 312, control 100
  MAX: Contraction at maximal Ach concentration relative to control: 202 ± 66
[4]; [10]
  ED50: −log M acetylcholine (Ach) causing 50% contraction relative to control: 5.73 ± 0.39 −log M
  MAX: Contraction at maximal Ach concentration relative to control: 113 ± 19
[4]; [11]
  ED50: −log M acetylcholine (Ach) causing 50% contraction relative to control: 5.68 ± 0.55 −log M
  MAX: Contraction at maximal Ach concentration relative to control: 129 ± 30
[5]; [12]
  % PAS(+) cells of total epithelial cells: 12.34 ± 1.39%
[5]; [13]
  % PAS(+) cells of total epithelial cells: 9.49 ± 1.08%
[5]; [14]
  % PAS(+) cells of total epithelial cells: 5.02 ± 0.75%
[6]
  Contraction caused by ET-1 in the isolated guinea pig trachea: dose-dependently inhibit the contraction
[6]; 10 μM, 25 minutes after addition, vehicle 84 ± 8, Mean ± SD (n)
  Emax at 10 µM: 43 ± 9%
[6]; 30 μM, 25 minutes after addition, vehicle 66 ± 8, Mean ± SD (n)
  Emax at 30 µM: 7 ± 4%

## CNC(=O)N1N=C(c2ccc(N)cc2)c2cc3c(cc2CC1C)OCO3 (single isomer, unassigned; (-)) [GYKI-53784, (−)-1-(4-Aminophenyl)-3-methylcarbamoyl-4-methyl-7,8-methylenedioxy-3,4-dihydro-5H-2,3-benzodiazepine]
[7]; AMPA (200 μM) + 53784 (200 μM), AMPA alone 14.8, control 6.6
  W/D: Ratio of wet and dry weight of lungs after 60-minute perfusion: 14.3 ± 5.6 (4)
[7]; AMPA (200 μM) + 53784 (200 μM), AMPA alone 147.9, control 96.0
  PAP: Pulmonary artery pressure after 60 minutes perfusion as a percent of 0 minute pressure: 114.0 ± 23.0 (4) percent
[7]; AMPA (200 μM) + 53784 (200 μM), AMPA alone 183.4, control 99.3
  PAW: Airway pressure after 60 minute perfusion as a percent of 0 minute pressure: 110.3 ± 19.1 (4) percent
[7]; AMPA-treated perfused rat lung
  Effect on airway and pulmonary arterial pressures: decreased both the airway and the pulmonary arterial pressures

## Cc1onc(O)c1CC(N)C(=O)O (stereo not drawn) [AMPA, α-Amino-3-hydroxy-5-methyl-4-isoxazole propionate]
[7]; [15]
  PAP: Pulmonary artery pressure after 60 minutes perfusion as a percent of 0 minute pressure: 147.9 ± 8.6 (7) percent
  W/D: Ratio of wet and dry weight of lungs after 60-minute perfusion: 14.8 ± 3.9 (3)
[7]; AMPA (200 μM) alone in perfusate, SPRD rats, n in brackets
  PAW: Airway pressure after 60 minute perfusion as a percent of 0 minute pressure: 183.4 ± 15.6 (7) percent

## Cc1cn2c(n1)Cc1ccc(Cl)cc1C(c1ccc(N)cc1)=N2 [GYKI-47261]
[1]
  MAX: Contraction at maximal Ach concentration relative to control: 98 ± 13
  ED50: −log M acetylcholine (Ach) causing 50% contraction relative to control: 5.26 ± 0.30 −log M
  Tracheal hyper-reactivity to acetylcholine after ovalbumin challenge: brought this elevation back to control level

## CC1=NN=C(c2ccc(N)cc2)c2cc3c(cc2C1)OCO3 [GYKI-52466, 1-(4-Aminophenyl)-4-methyl-7,8-methylenedioxy-5H-2,3-benzodiazepine]
[1]
  MAX: Contraction at maximal Ach concentration relative to control: 135 ± 32
  ED50: −log M acetylcholine (Ach) causing 50% contraction relative to control: 5.60 ± 0.46 −log M
  Tracheal hyper-reactivity to acetylcholine after ovalbumin challenge: brought this elevation back to control level
[5]; [12]
  % PAS(+) cells of total epithelial cells: 16.09 ± 1.82%
[5]; [13]
  % PAS(+) cells of total epithelial cells: 15.18 ± 1.68%
[5]; [14]
  % PAS(+) cells of total epithelial cells: 14.17 ± 1.59%
[6]
  Contraction caused by ET-1 in the isolated guinea pig trachea: dose-dependently inhibit the contraction
  Emax at 10 µM: 53 ± 7%
  Emax at 30 µM: 23 ± 9%

## NS(=O)(=O)c1cccc2c1c([N+](=O)[O-])cc1[nH]c(=O)c(=O)[nH]c12 [NBQX, 2,3-Dihydroxy-6-nitro-7-sulphamoyi-benzo(f)quinoxaline]
[8]; local administration, statistically significant only at the highest applied dose
  Allergen-induced airways hypersensitivity: inhibits allergen-induced airways hypersensitivity in a dose-dependent manner
[8]; first dose column (dose number not given), challenged 6.70, control 5.68
  ED50: −log M acetylcholine (Ach) causing 50% contraction relative to control: 5.85 ± 0.59 −log M
[8]; first dose column (dose number not given), challenged 327, control 100
  MAX: Contraction at maximal Ach concentration relative to control: 308 ± 128
[8]; [10]
  ED50: −log M acetylcholine (Ach) causing 50% contraction relative to control: 5.20 ± 0.72 −log M
  MAX: Contraction at maximal Ach concentration relative to control: 108 ± 28
[8]; [16]
  ED50: −log M acetylcholine (Ach) causing 50% contraction relative to control: 3.44 ± 0.36 −log M
  MAX: Contraction at maximal Ach concentration relative to control: 60 ± 14
[3]; 0.03 μg/ml
  Inhibition (% of control) RASMC: 1 % of control
[3]; 0.3 μg/ml
  Inhibition (% of control) RASMC: 5 % of control
[3]; 3.0 μg/ml
  Inhibition (% of control) RASMC: 94 % of control
[9]; 0.15 mg/kg intraperitoneal, challenged 7.31, control 6.16
  ED50: −log M acetylcholine (Ach) causing 50% contraction relative to control: 6.29 ± 0.51 −log M
[9]; 0.15 mg/kg intraperitoneal, challenged 308, control 100
  MAX: Contraction at maximal Ach concentration relative to control: 178 ± 65
[9]; 1.5 mg/kg intraperitoneal
  ED50: −log M acetylcholine (Ach) causing 50% contraction relative to control: 4.98 ± 0.80 −log M
  MAX: Contraction at maximal Ach concentration relative to control: 115 ± 30
[9]; 15 mg/kg intraperitoneal
  ED50: −log M acetylcholine (Ach) causing 50% contraction relative to control: 5.11 ± 0.55 −log M
  MAX: Contraction at maximal Ach concentration relative to control: 125 ± 32
[9]; intraperitoneal, dose-dependent
  Allergen-induced airways hypersensitivity, ED50 and maximal provoked response: strongly inhibits both parameters
